The test system of the experiment is Cryptosporidium parvum. Description: Assay for the ability of tetracycline compounds to control Cryptosporidium parvum infection in vitro (indirect immunofluorescence parasite count). As to conditions: C. parvum GCH1 oocysts in MDCK/MDBK cell monolayers, 48 hour incubation, IF parasite count, class by concentration giving 70% inhibition. Format: cell-based. The method, then:
This assay is designed to test the ability of a tetracycline compound to control Cryptosporidium parvum infection in vitro. […] MDCK cells were grown in 96-well microtiter plastic plates, and were seeded with approximately 5×10^4 cells per well, using DMEM as the growth/maintenance medium with 10% FCS. Plates were normally grown to confluence 2–3 days after having been seeded with bleached, less than four week-old, C. parvum oocysts. The C. parvum isolate used most often was the human-derived, calf-propagated GCH1 (Tzipori, Clin. Diagn. Lab. Immunol. (1994) 1:450; Tzipori, J. Infect. Dis. (1995) 172:1160). The DMEM medium was also added to the negative control wells. The tetracycline compounds and the oocysts were added to the wells concurrently. The cells were subsequently monitored twice daily and any apparent morphologic changes were recorded. The monolayers were fixed with methanol after 48 hour incubation at 37° C. in 8% CO2. […] The tetracycline compounds were used at various concentrations (0.1–2000 μg/mL) and were dissolved directly into the culture medium. A conventional indirect immunofluorecensce (IF) assay was used to detect and enumerate parasite forms after 48-hour incubation. For the purposes of this assay, a polyclonal rabbit anti-sporozoite antibody was produced. […] The secondary antibody, a fluoroscein-conjugated goat anti-rabbit IgG, was used at a concentration of 1:100, according the manufacturer's instructions. The primary antibody was added after fixation for thirty minutes and after vigorous washing, the secondary antibody was incubated for another thirty minutes. The dried microtiter plate was viewed with an inverted microscope (x10 mag.), under ultraviolet light. For parasite counts, a semi-automated video imaging MCID system was used to facilitate the enumeration and analysis of the parasite data. In Table 1, good inhibition of C. parvum is indicated by ‘*’ (e.g., 70% inhibition at concentrations above 10 μg/ml and above) and very good inhibition of C. parvum is indicated by ‘**’ (e.g., 70% inhibition at concentrations below 10 μg/ml).
As to `CCC(=O)O[C@H]1C2C(=C(O)[C@]3(O)C(=O)C(C(N)=O)=C(O)[C@@H](N(C)C)C13)C(=O)c1c(ccc(C(C)(C)C)c1O)[C@@H]2C` (some centres unmarked), the IC70 (usually the point of the concentration-response curve where the effect stands at 70%) was at least 10 µg/mL.
`CCC(=O)O[C@H]1C2C(=C(O)[C@]3(O)C(=O)C(C(N)=O)=C(O)[C@@H](N(C)C)C13)C(=O)c1c(O)cccc1[C@@H]2CSC1CCCC1` (some centres unmarked) yielded a concentration for an effect of 70% (IC70) below 10 µg/mL.
In the case of `CN(C)[C@@H]1C(O)=C(C(N)=O)C(=O)[C@@]2(O)C(O)=C3C(=O)c4c(O)cccc4[C@H](CSC4CCCC4)C3[C@H](O)C12` (some centres unmarked), the IC70 was below 10 µg/mL.
`C[C@H]1c2ccc(C(C)(C)C)c(O)c2C(=O)C2=C(O)[C@]3(O)C(=O)C(C(N)=O)=C(O)[C@@H](N(C)C)C3[C@@H](O)C21` (some centres unmarked) returned an IC70 below 10 µg/mL.
Compound `C[C@H]1c2cccc(O)c2C(=O)C2=C(O)[C@]3(O)C(=O)C(C(N)=O)=C(O)[C@@H](N(C)C)C3[C@@H](O)C21` (some centres unmarked) showed an IC70 of at least 10 µg/mL.
`CN(C)c1cc(C#CC2=CCCCC2)c(O)c2c1CC1CC3[C@H](N(C)C)C(O)=C(C(N)=O)C(=O)[C@@]3(O)C(O)=C1C2=O` (some centres unmarked) gave a 70% effect concentration (IC70) below 10 µg/mL.
`C[C@H]1c2ccc(C3=CCCC3)c(O)c2C(=O)C2=C(O)[C@]3(O)C(=O)C(C(N)=O)=C(O)[C@@H](N(C)C)C3[C@@H](O)C21` (some centres unmarked) displayed an IC70 below 10 µg/mL.
In turn, `CN(C)[C@@H]1C(O)=C(C(N)=O)C(=O)[C@@]2(O)C(O)=C3C(=O)c4c(O)cccc4SC3[C@H](O)C12` (some centres unmarked) showed an IC70 of at least 10 µg/mL.

(Values after patent US7202235B2, “Tetracycline compounds for treatment of cryptosporidium parvum related disorders” (Trustees of Tufts College, priority 2000, dated 2007).)
